This note sets out measurements from US8324188B2, “Combinations of ET-18-O-CH3and anti-cancer agents for the treatment of cancer” (priority 2006, dated 2012).

The test system of experiment [1] is LNCaP androgen-sensitive human prostate adenocarcinoma cells. The experiment is described as follows: trypan blue dye exclusion, living LNCaP cells. The class given is cell-based. The method, then: FIG. 1. Depicts the in vitro effects of 1-O-octadecyl-2-O-methyl-glycero-3-phosphocholine (final concentration 10 μM), (ionizing) radiation (absorbed dose of 5 Gray units; indicated as “RT”), and a combination thereof on programmed cell death (apoptosis) and the survival rate of LNCaP androgen-sensitive human prostate adenocarcinoma cells. Apoptosis was determined using the Apo-ONE™ Homogenous Caspase-317 Assay, Promega, Inc., Madison, Wis., USA according to the manufacturers instructions. The percentage of living cancer cells was estimated by means of trypan blue dye exclusion as described (Freshney, R. I. (1994) Culture of Animal Cells: A Manual of Basic Technique. 3rd Ed. Wiley-Liss. New York. USA). The cells were exposed to radiation six hours after (FIG. 1A), concomitantly with (FIG. 1B), or six hours before administration of 1-O-octadecyl-2-O-methyl-glycero-3-phospho-choline (FIG. 1C). The caspase assay was performed 12 hours after exposure to radiation. The respective data shown represent the average of two independent experiments.
First, the in vitro effects of 1-O-octadecyl-2-O-methyl-glycero-3-phosphocholine, (ionizing) radiation, and a combination thereof on programmed cell death (apoptosis) and the survival rate of LNCaP androgen-sensitive human prostate adenocarcinoma cells were measured. The LNCaP cell line was established from a metastatic lesion of the adenocarcinoma. The cells were treated with a final concentration of 10 μM 1-O-octadecyl-2-O-methyl-glycero-3-phosphocholine and (ionizing) radiation corresponding to an absorbed dose of 5 Gray units.
Apoptosis was determined using the Apo-ONE™ Homogenous Caspase-3/7 Assay, Promega, Inc., Madison, VV1, USA according to the manufacturers instructions. The percentage of living tumor cells was estimated by means of trypan blue dye exclusion as described (Freshney, R. I. (1994) Culture of Animal Cells: A Manual of Basic Technique. 3rd Ed. Wiley-Liss. New York. USA)
The cells were exposed to radiation six hours after (FIG. 1A), concomitantly with (FIG. 1B), or six hours before administration of 1-O-octadecyl-2-O-methyl-glycero-3-phospho-choline (FIG. 1C). The caspase assay was performed 12 hours after exposure to radiation. The respective data shown represent the average of two independent experiments.

The test system of experiment [2] is U118MG. Put plainly: WST-1 proliferation assay, U118MG. Type of experiment: cell-based, human. The method, then:
(§1) AP-121 was prepared as 5 mM stock solution in distilled sterile water, Temozolomide (TMZ) (Haorui Pharma-Chem, Inc., Edison, N.J.) was prepared as 100 mM in sterile filtrated DMSO; Adriamycin (ADR) (Sigma) was prepared as 1 mM in distilled sterile water; Camptothecin (CTP) (Sigma) was prepared as 10 mM solution in 0.1 N NaOH; Tarceva (Proteinkinase, Germany) was prepared as 5 mM solution in sterile DMSO. All compound stocks were kept at −20° C. 2000 cells were plated in each well of 96-well flat bottom plates, and incubated overnight at 37 °C in 5% CO2. The growth of plated cells was measured by adding […] of WST-1 reagent (Roche Applied Sciences, Germany) to 3 control wells and measuring the absorbance at 650 nm and at 450 nm, respectively, with a SpectraMax250 plate reader. […] After this incubation, VVST-1 reagent was added to the wells and OD650-OD450 values were calculated as before. six wells were assayed for each conditions and standard deviation was determined: all experiments were performed at least three times independently. […] Six different concentrations of each drug were used in combinations index measurements and compared to +/− cells, and compared to controls without compound. Each combination was repeated 6 times at 2 different time points (24 and 96 hours), each of the above experiments was repeated 3 times to obtain valid results.

In experiment [3] the test system is A172. The experiment is described as follows: WST-1 proliferation assay, A172. Type of experiment: cell-based, human. How it is done: as §1, with “compound.” for “compound. Each combination was repeated 6 times at 2 different time points (24 and 96 hours), each of the above experiments was repeated 3 times to obtain valid results.”
On the technique in general: Formazan colour is commonly taken as a measure of viable cells.

For `CCCCCCCCCCCCCCCCCCOCC(COP(=O)([O-])OCC[N+](C)(C)C)OC` (racemic) [AP-121, 1-O-octadecyl-2-O-methyl-glycero-3-phosphocholine], the “survival of the cells” value in experiment [1] (10 μM administered six hours after radiation (5 Gray), combined treatment (FIG. 1C)) is “about 40%”. Besides, the “survival of the tumor cells” value in experiment [1] (10 μM administered six hours prior to radiation (5 Gray), combined treatment, untreated controls about 85% (FIG. 1A)) is recorded as “about 45%”. Besides, the survival rate result is listed as “about 55%” in experiment [1] (10 μM concomitant with radiation (5 Gray), untreated controls about 86% (FIG. 1B)); “about 50%” in experiment [1] (10 μM, individual chemical treatment (FIG. 1B)); “about 45%” in experiment [1] (10 μM, individual chemical treatment (FIG. 1C)); “about 60%” in experiment [1] (10 μM, individual treatment without radiation (FIG. 1A)). Besides, the IC50 (as a rule, the point on the concentration scale where inhibition reaches its midpoint) in experiment [2] (Homo sapiens, U-118-MG) is 3.6 µM; in experiment [3] (Homo sapiens, A 172), 4.6 µM. Further, the EC50 stood at 4.8 µM in experiment [2] (Homo sapiens, U-118-MG, single agent or compound mixture as labelled (arrays A2, A1), read-out: ED50 (the source's name)) and 4.2 µM in experiment [3] (Homo sapiens, A 172, single agent or compound mixture as labelled (arrays A2, A1), read-out: ED50 (the source's name)). Further, the normalized ED50 (arrays B2, B1) amounted to 0.71 in experiment [2] (ratio to the largest value) and 0.62 in experiment [3] (ratio to the largest value).
